Consider 14 compounds from patent US20260231939A1, “ARTHROPOD CONTROL COMPOSITIONS” (Firmenich SA, priority 2022, published 2026).

Read-outs that look alike come from different tables or passages of the source.

One assay has as its system Anopheles gambiae. As to the kind of experiment: Warm Body assay, mosquito landings on the baited warm body. In kind it is in vivo. The protocol: Anopheles gambiae is also a model organism as it is anthropophilic and transmits malaria.
The controlling effect according to the present invention was assessed using an adapted Warm Body assay as defined in Kröber T, Kessler S, Frei J, Bourquin M, Guerin P M. 2010. J Am Mosq Control Assoc. 26:381-386. In this in-vitro assay the number of mosquito landing on a warm body, simulating an attractive host treated with the tested stimuli, was measured in order to assess the repellence effect. […]
(§1) On the sandblasted glass Petri dish covering the warm body (28.3 cm^2), 100 μL of the compounds diluted at different concentrations in ethanol was applied. The number of mosquito landing on the warm body was counted for each stimulus. Number of landings on pure ethanol (solvent) control treatment was used to normalize the data and calculate the percentage of repellence.

A further assay has as its system Aedes aegypti. Described as above. In kind it is in vivo. As to conditions: for pest or weed control at 16 µg/mL / pest or weed control at 400 µg/mL / pest or weed control at 10000 µg/mL: Aedes aegypti, read-out: Percentage of repellence of mosquitoes landing on the warm body. The protocol: The controlling effect according to the present invention was assessed using an adapted Warm Body assay as defined in Kröber T, Kessler S, Frei J, Bourquin M, Guerin P M. 2010. J Am Mosq Control Assoc. 26:381-386. In this in-vitro assay the number of mosquito landing on a warm body, simulating an attractive host treated with the tested stimuli, was measured in order to assess the repellence effect.
The published protocol has been adapted as the switch from Anopheles gambiae to Ae. aegypti led to a decrease of mosquitoes placed in the tested cage due to the size difference (i.e. 30 mosquitoes instead of 50) and to an increase of lighting since Ae. aegypti is a diurnal mosquitoes (i.e. 150 lux instead of 4 lux).
as §1

For another assay, the system named is Ae. aegypti. Briefly: Arm-in-cage test on human volunteers. It is filed as in vivo, Aedes aegypti. The note with it: for Arm-in-cage repellence: 20% in ethanol. The protocol: (§2) The Arm in the box method was adapted from the WHO Guidelines for efficacy testing of mosquito repellents for human skin (WHO/CDS/NTD/WHOPES/2009.4) and/or based on EU biocide testing guidelines (Guidance on the Biocidal Products Regulation. Vol. II Efficacy—Assessment and Evaluation (Parts B+C), v. 4.0. December 2021). The readiness of 200 hungry female mosquitoes Ae. aegypti or 50 An. gambiae to probe is assessed by inserting the untreated arm of human volunteers into the cage (40×40×40 cm) for 30 seconds (negative control) in order to determine probing activity. Then, the product is applied onto the skin of the forearm of the human volunteer (1 mL per 600 cm^2) and after 5 minutes (Ae. aegypti) or 30 minutes (An. gambiae), this arm is inserted into the cage and exposed for 3 minutes. The assay take place in temperature (27±2° C.) and humidity (80±10% RH) regulated room on three different human volunteers.

For the next assay, the system named is An. gambiae. As to the kind of experiment: Arm-in-cage test on human volunteers. In kind it is in vivo, Anopheles gambiae. Here is the method:
as §2

The subject of the next assay is Ixodes ricinus. As to the kind of experiment: Warm Plate Assay for ticks.
[1] abbreviates: γ-lactones, 0.016 mg/mL in ethanol.
The mark [2] stands for this setting: γ-lactones, 0.4 mg/mL in ethanol.
The mark [3] stands for this setting: γ-lactones, 10 mg/mL in ethanol.
Setting [4] is: more complex lactones (types A, B, C), 0.016 mg/mL.
Where [5] appears, read: more complex lactones (types A, B, C), 0.4 mg/mL.
[6] abbreviates: more complex lactones (types A, B, C), 10 mg/mL.

`C=CCCCCC1CCC(=O)O1` (centres unmarked) [5-hex-5-enyloxolan-2-one]: the “Percentage of repellence of mosquitoes landing on the warm body” value (shortened to “Percentage of repellence … on the warm body”) in the assay on Anopheles gambiae (0.08 mg/mL) is 65%; in the assay with Anopheles gambiae (0.178 mg/mL), 72%; with Anopheles gambiae (0.267 mg/mL) it was 73%; with Anopheles gambiae (0.598 mg/mL), 88%; with Anopheles gambiae (0.89 mg/mL), 98%; in the assay with Anopheles gambiae (2 mg/mL), 100%. Besides, the “Percentage of repellence … on the warm body” value in the assay on Anopheles gambiae (4.47 mg/mL) and with Anopheles gambiae (10 mg/mL) was 100% in each case. The pest or weed control at 16 µg/mL with Aedes aegypti (setting [1]) is 14%. In addition, in the assay with Aedes aegypti (setting [2]), the pest or weed control at 400 µg/mL came to 89%. The pest or weed control at 10000 µg/mL in the assay with Aedes aegypti (setting [3]) turned out to be 100%.
As to `CCC=CCCC1CCC(=O)O1` (centres unmarked) [5-hex-3-enyloxolan-2-one], the “Percentage of repellence … on the warm body” value in the assay on Anopheles gambiae (0.08 mg/mL) is given as 12%; with Anopheles gambiae (0.178 mg/mL), 38%; with Anopheles gambiae (0.267 mg/mL), 95%; in the assay with Anopheles gambiae (0.598 mg/mL), 93%; in the assay on Anopheles gambiae (0.89 mg/mL), 100%; in the assay with Anopheles gambiae (2 mg/mL), 100%. In addition, the “Percentage of repellence … on the warm body” value with Anopheles gambiae (4.47 mg/mL) and with Anopheles gambiae (10 mg/mL) was 100% in each case. The Arm-in-cage repellence in the assay with Ae. aegypti (5 min post application) is on record as 98.5% ±; with Ae. aegypti (1 h post application), 97.0% ±; in the assay on Ae. aegypti (2 h post application), 93.0% ±; in the assay with Ae. aegypti (3 h post application) it was 88.3% ±; in the assay with Ae. aegypti (4 h post application), 79.5% ±; in the assay on An. gambiae (20% in ethanol, 30 min post application), 100% ±. In addition, the Arm-in-cage repellence in the assay with An. gambiae (20% in ethanol, 1 h post application) is recorded as 100% ±; with An. gambiae (20% in ethanol, 2 h post application), 100% ±; with An. gambiae (20% in ethanol, 3 h post application), 100% ±; with An. gambiae (20% in ethanol, 4 h post application), 100% ±; in the assay with An. gambiae (20% in ethanol, 5 h post application) it was 97.85% ±; with An. gambiae (20% in ethanol, 6 h post application), 80.07% ±. In addition, in the assay on Ae. aegypti (20% solution in ethanol), the “time during which mosquito protection is >90%” value was determined as 2 h. Moreover, in the assay on An. gambiae (20% in ethanol), the “time during which protection is 100%, i.e. no mosquito landing” value came to 4 h. The “time during which mosquito protection / repellence is >90%” value in the assay on An. gambiae (20% solution in ethanol) turned out to be 5 h. Besides, in the assay with Aedes aegypti (setting [1]), the pest or weed control at 16 µg/mL was 0%. In addition, the pest or weed control at 400 µg/mL in the assay with Aedes aegypti (setting [2]) came to 81%. In the assay on Aedes aegypti (setting [3]), the pest or weed control at 10000 µg/mL came out at 95%. Also, the “repellence efficacy compared with the saturated counterpart” value with Aedes aegypti (Warm Body assay, paired t-test where given) is on record as “significantly higher”. Further, the “Percentage of repellence of ticks on the warm plate” value was 17% in the assay with Ixodes ricinus (0.40 mg/mL) and 100% in the assay with Ixodes ricinus (10 mg/mL).
With `CCCCCCCC1CCC(=O)O1` (centres unmarked) [5-heptyloxolan-2-one], the pest or weed control at 16 µg/mL in the assay with Aedes aegypti (setting [1]) worked out at 15%. Also, in the assay on Aedes aegypti (setting [2]), the pest or weed control at 400 µg/mL stood at 28%. Besides, the pest or weed control at 10000 µg/mL in the assay on Aedes aegypti (setting [3]) worked out at 70%.
For `CCCCCCC=CC1CCC(=O)O1` (centres unmarked) [5-oct-1-enyloxolan-2-one], in the assay with Aedes aegypti (setting [1]), the pest or weed control at 16 µg/mL turned out to be 0%. Further, the pest or weed control at 400 µg/mL in the assay on Aedes aegypti (setting [2]) stood at 60%. Also, the pest or weed control at 10000 µg/mL in the assay on Aedes aegypti (setting [3]) turned out to be 98%.
Consider `CCC=CC[C@H]1CCCC(=O)O1` [(6R)-6-pent-2-enyloxan-2-one], for which the pest or weed control at 16 µg/mL in the assay on Aedes aegypti (δ-lactones, 0.016 mg/mL) came out at 78%. The pest or weed control at 400 µg/mL with Aedes aegypti (δ-lactones, 0.4 mg/mL) came to 100%. Besides, in the assay with Aedes aegypti (δ-lactones, 10 mg/mL), the pest or weed control at 10000 µg/mL was determined as 98%.
Turning to `CCCCCC1C=CC(=O)O1` (centres unmarked) [2-pentyl-2H-furan-5-one], the pest or weed control at 16 µg/mL in the assay with Aedes aegypti (setting [4]) turned out to be 0%. Besides, in the assay with Aedes aegypti (setting [5]), the pest or weed control at 400 µg/mL is 53%. In addition, in the assay with Aedes aegypti (setting [6]), the pest or weed control at 10000 µg/mL was determined as 100%.
On to `CCC1CCC(=O)O1` (centres unmarked) [5-ethyloxolan-2-one], for which, in the assay on Aedes aegypti (setting [1]), the pest or weed control at 16 µg/mL turned out to be 0%. Also, in the assay with Aedes aegypti (setting [2]), the pest or weed control at 400 µg/mL came out at 16%. The pest or weed control at 10000 µg/mL in the assay on Aedes aegypti (setting [3]) came out at 74%.
As to `CCCCC=CC1CCC(=O)O1` (centres unmarked) [5-hex-1-enyloxolan-2-one], in the assay on Aedes aegypti (setting [1]), the pest or weed control at 16 µg/mL is 46%. Also, the pest or weed control at 400 µg/mL with Aedes aegypti (setting [2]) was determined as 87%. In the assay on Aedes aegypti (setting [3]), the pest or weed control at 10000 µg/mL was 95%.
Regarding `CCCC1CCC(=O)O1` (centres unmarked) [5-propyloxolan-2-one], in the assay with Aedes aegypti (setting [1]), the pest or weed control at 16 µg/mL came out at 28%. Besides, in the assay with Aedes aegypti (setting [2]), the pest or weed control at 400 µg/mL worked out at 50%. Besides, the pest or weed control at 10000 µg/mL in the assay with Aedes aegypti (setting [3]) amounted to 100%.
For `CCCCC=CCCC1CCC(=O)O1` (centres unmarked) [5-oct-3-enyloxolan-2-one] the same measures were 31%, 76% and 92%.
With `C=C/C=C\C1C(=O)OC1CCCCC` (centres unmarked) [(Z)-3-buta-1,3-dienyl-4-pentyloxetan-2-one], the pest or weed control at 16 µg/mL with Aedes aegypti (β- and ε-lactones, 0.016 mg/mL) came to 64%. The pest or weed control at 400 µg/mL in the assay on Aedes aegypti (β- and ε-lactones, 0.4 mg/mL) was 87%. The pest or weed control at 10000 µg/mL in the assay with Aedes aegypti (β- and ε-lactones, 10 mg/mL) is 95%.
Take `O=C1CCC2(CCCCC2)O1` [1-oxaspiro[4.5]decan-2-one]: in the assay with Aedes aegypti (setting [4]), the pest or weed control at 16 µg/mL turned out to be 54%. In the assay on Aedes aegypti (setting [5]), the pest or weed control at 400 µg/mL came out at 79%. Further, in the assay with Aedes aegypti (setting [6]), the pest or weed control at 10000 µg/mL stood at 100%.
Consider `CC1CCC2C(C1)OC(=O)C2C` (centres unmarked) [3,6-dimethyl-3a,4,5,6,7,7a-hexahydro-3H-1-benzofuran-2-one], for which the “mosquitoes repelled for at least 1 h” value with Ae. aegypti (at 20%) and with An. gambiae (at 20%) was more than 95% each time. Moreover, the “Arm-in-cage repellence, mean of three volunteers” value in the assay on Ae. aegypti (at 20%, 30 min) was 100% ±; with Ae. aegypti (at 20%, 1 h), 99.93% ±; in the assay with Ae. aegypti (at 20%, 2 h), 92.21% ±; in the assay on Ae. aegypti (at 20%, 3 h), 86.52% ±; with Ae. aegypti (at 20%, 4 h), 66.02% ±; in the assay with An. gambiae (at 20%, 30 min) it was 100% ±. Also, the “Arm-in-cage repellence, mean of three volunteers” value in the assay with An. gambiae (at 20%, 1 h) is given as 93.7% ±; in the assay with An. gambiae (at 20%, 2 h) it was 67.05% ±. Moreover, the pest or weed control at 16 µg/mL with Aedes aegypti (setting [4]) is 0%. The pest or weed control at 400 µg/mL in the assay with Aedes aegypti (setting [5]) was found to be 90%. The pest or weed control at 10000 µg/mL with Aedes aegypti (setting [6]) was 98%.
On to `O=C1CCCCC(C2CCCCC2)O1` (centres unmarked) [7-cyclohexyloxepan-2-one], for which the pest or weed control at 16 µg/mL with Aedes aegypti (β- and ε-lactones, 0.016 mg/mL) was 0%. Also, in the assay with Aedes aegypti (β- and ε-lactones, 0.4 mg/mL), the pest or weed control at 400 µg/mL is 10%. Besides, the pest or weed control at 10000 µg/mL with Aedes aegypti (β- and ε-lactones, 10 mg/mL) worked out at 26%.
